Measurements as given in the supplement of paper PMC11451515.

Tested on: NOMO1
Test: cell viability relative to DMSO control; higher = less cytotoxic
Conditions: 48 h
Summary of the method: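 Before seeding, each leukemia line was adapted for at least four passages in each medium. NOMO1 or SEM cells (500 cells/well) and P12-Ichikawa cells (1000 cells/well) went into 1536-well plates at 5 μl, then received library compounds in DMSO by pin dosing across 11 threefold concentrations, 47 μM to 0.79 nM. Readout was CellTiter-Glo One luminescence after 48 h at 37°C, and viability is given as a per-plate percentage of DMSO wells, with cell-free wells as background.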

[1] = HPLM + 10% dialyzed FBS, 0.000781 µM
[2] = HPLM + 10% dialyzed FBS, 0.00234 µM
[3] = HPLM + 10% dialyzed FBS, 0.00702 µM
[4] = HPLM + 10% dialyzed FBS, 0.0211 µM
[5] = HPLM + 10% dialyzed FBS, 0.0632 µM
[6] = HPLM + 10% dialyzed FBS, 0.19 µM
[7] = HPLM + 10% dialyzed FBS, 0.569 µM
[8] = HPLM + 10% dialyzed FBS, 1.71 µM
[9] = HPLM + 10% dialyzed FBS, 5.12 µM
[10] = HPLM + 10% dialyzed FBS, 15.4 µM
[11] = HPLM + 10% dialyzed FBS, 46.1 µM
[12] = RPMI 5 mM glucose + 10% FBS, 0.000781 µM
[13] = RPMI 5 mM glucose + 10% FBS, 0.00234 µM
[14] = RPMI 5 mM glucose + 10% FBS, 0.00702 µM
[15] = RPMI 5 mM glucose + 10% FBS, 0.0211 µM
[16] = RPMI 5 mM glucose + 10% FBS, 0.0632 µM
[17] = RPMI 5 mM glucose + 10% FBS, 0.19 µM
[18] = RPMI 5 mM glucose + 10% FBS, 0.569 µM
[19] = RPMI 5 mM glucose + 10% FBS, 1.71 µM
[20] = RPMI 5 mM glucose + 10% FBS, 5.12 µM
[21] = RPMI 5 mM glucose + 10% FBS, 15.4 µM
[22] = RPMI 5 mM glucose + 10% FBS, 46.1 µM
[23] = RPMI 5 mM glucose + 10% dialyzed FBS, 0.000781 µM
[24] = RPMI 5 mM glucose + 10% dialyzed FBS, 0.00234 µM
[25] = RPMI 5 mM glucose + 10% dialyzed FBS, 0.00702 µM
[26] = RPMI 5 mM glucose + 10% dialyzed FBS, 0.0211 µM
[27] = RPMI 5 mM glucose + 10% dialyzed FBS, 0.0632 µM
[28] = RPMI 5 mM glucose + 10% dialyzed FBS, 0.19 µM
[29] = RPMI 5 mM glucose + 10% dialyzed FBS, 0.569 µM
[30] = RPMI 5 mM glucose + 10% dialyzed FBS, 1.71 µM
[31] = RPMI 5 mM glucose + 10% dialyzed FBS, 5.12 µM
[32] = RPMI 5 mM glucose + 10% dialyzed FBS, 15.4 µM
[33] = RPMI 5 mM glucose + 10% dialyzed FBS, 46.1 µM

Structure (SMILES) | cell viability [1] [%] | cell viability [2] [%] | cell viability [3] [%] | cell viability [4] [%] | cell viability [5] [%] | cell viability [6] [%] | cell viability [7] [%] | cell viability [8] [%] | cell viability [9] [%] | cell viability [10] [%] | cell viability [11] [%] | cell viability [12] [%] | cell viability [13] [%] | cell viability [14] [%] | cell viability [15] [%] | cell viability [16] [%] | cell viability [17] [%] | cell viability [18] [%] | cell viability [19] [%] | cell viability [20] [%] | cell viability [21] [%] | cell viability [22] [%] | cell viability [23] [%] | cell viability [24] [%] | cell viability [25] [%] | cell viability [26] [%] | cell viability [27] [%] | cell viability [28] [%] | cell viability [29] [%] | cell viability [30] [%] | cell viability [31] [%] | cell viability [32] [%] | cell viability [33] [%]
O=C(O[C@H]1C[C@H]2CC[C@@H](C1)[N+]21CCCC1)C(O)(c1ccccc1)c1ccccc1.[Cl-] | 95.5 | 116 | 121 | 107 | 124 | 116 | 116 | 116 | 116 | 110 | 106 | 89.4 | 95.7 | 99.6 | 89.9 | 92.3 | 98.3 | 96.8 | 105 | 100 | 105 | 92.1 | 97.6 | 98.8 | 111 | 109 | 98.1 | 102 | 94.8 | 95 | 111 | 106 | 108
N=C(NCCCCCCNC(=N)NC(=N)Nc1ccc(Cl)cc1)NC(=N)Nc1ccc(Cl)cc1 | 82 | 88.2 | 100 | 90.4 | 106 | 111 | 105 | 113 | 89 | 87.6 | 56.5 | 75.4 | 92.9 | 79.1 | 96.3 | 96.1 | 85.5 | 93.2 | 88.5 | 91.1 | 87.4 | 30.9 | 79.5 | 88.9 | 90.6 | 90.5 | 105 | 103 | 101 | 105 | 100 | 85.6 | 41.5
O=C(O)c1ccc2c(c1)nc(Nc1cccc(Cl)c1)c1ccncc12 | 114 | 109 | 131 | 115 | 114 | 119 | 125 | 114 | 73.8 | 49.2 | 78.1 | 93 | 93.5 | 103 | 103 | 94.6 | 103 | 92.7 | 90.8 | 83.7 | 65.6 | 79.2 | 100 | 105 | 101 | 101 | 107 | 99.1 | 91.9 | 101 | 81.5 | 47.2 | 77.5
CN(C)[C@H]\1[C@@H]2C[C@H]3C(=C(O)\[C@]2(O)C(=O)\C(=C1O)C(N)=O)/C(=O)C4=C(O)C=CC=C4[C@@]3(C)O | 104 | 111 | 104 | 109 | 111 | 106 | 120 | 95.1 | 121 | 97.1 | 99.6 | 117 | 124 | 118 | 125 | 108 | 102 | 119 | 110 | 102 | 104 | 106 | 104 | 116 | 112 | 115 | 112 | 102 | 110 | 95 | 110 | 101 | 93.4
C=C[C@H]1CN2CC[C@H]1C[C@H]2[C@H](O)c1ccnc2ccc(OC)cc12 | 116 | 89.2 | 96.3 | 109 | 105 | 98.4 | 115 | 96.4 | 112 | 101 | 86.8 | 86.5 | 87.5 | 84.3 | 87.8 | 103 | 97.9 | 98.7 | 103 | 99.5 | 97.6 | 76.4 | 92.3 | 103 | 98.9 | 96.1 | 104 | 108 | 113 | 105 | 106 | 105 | 68.8
C/C=C1\C2C=C(C)CC1(N)c1ccc(=O)[nH]c1C2 (centres undefined) | 107 | 117 | 113 | 114 | 109 | 104 | 117 | 106 | 110 | 95.1 | 79.4 | 94.6 | 96.4 | 99.2 | 115 | 96.3 | 93.7 | 102 | 105 | 102 | 91 | 90.8 | 90.4 | 103 | 96.7 | 103 | 108 | 96.1 | 94.1 | 99.9 | 95 | 98.8 | 81
CCC[C@H]1C[C@H](C(=O)N[C@@H]([C@@H]2O[C@@H](SC)[C@@H](O)[C@@H](O)[C@H]2O)[C@H](C)Cl)N(C)C1 | 102 | 117 | 106 | 119 | 128 | 121 | 131 | 118 | 124 | 137 | 114 | 119 | 115 | 108 | 118 | 112 | 134 | 123 | 116 | 129 | 126 | 143 | 112 | 117 | 120 | 113 | 114 | 119 | 122 | 109 | 129 | 127 | 130
CN1C[C@H]2c3ccccc3Oc3ccc(Cl)cc3[C@@H]2C1 | 78.1 | 106 | 93.5 | 92.7 | 85.6 | 90 | 106 | 96 | 90.5 | 93.8 | 82.1 | 75.8 | 93.6 | 88.7 | 90.4 | 91.3 | 83.3 | 80.7 | 88.2 | 80.4 | 87.3 | 85.6 | 85.8 | 86.1 | 85.4 | 94.2 | 87.4 | 95.2 | 85.2 | 83.9 | 93 | 82.1 | 85.3
